{"source": "paper PMC10218704", "about": "“A Novel Blood–Brain Barrier-Penetrating and Vascular-Targeting Chimeric Peptide Inhibits Glioma Angiogenesis” (International Journal of Molecular Sciences, 2023)", "key": {"VEGFR-2": {"test_system": "VEGFR-2", "test": "Western blot, phosphorylation of VEGFR-2", "format": "cell-based, human", "settings": "320 μmol/L; 90 min; VEGF-A165 30 ng/mL; HUVECs; n = 3", "protocol": "For Western blotting analysis, HUVECs were seeded into 6-well culture plates at 3 × 10^5 cells/well and incubated overnight. […] Two control groups (F-12K medium in the absence or presence of VEGF-A165) were set. The cells were washed with cold PBS and lysed with lysis buffer (protease and phosphatase inhibitors) on the ice for 30 min, and then centrifuged at 4 °C for 15 min at 14,000 r/min. The supernatant was collected, and its total protein concentration was determined by the BCA protein assay kit. Equal amounts of proteins were separated by 10% SDS-PAGE gels and transferred to polyvinylidene difluoride (PVDF) membranes. After blocking with 5% non-fat milk for 1 h, the membranes were incubated with specific antibodies at 4 °C overnight. Then, the membranes were washed with TBST (Tris-Buffered Saline with 0.1% Tween 20) and incubated with horseradish peroxidase (HRP)-conjugated secondary antibody for 1 h at room temperature. The proteins on the membranes were visualized with enhanced chemiluminescence agents."}, "[1]": {"test_system": "intracranial U87-mCherry-luc glioma", "test": "Glioma distribution and vascular targeting in vivo (FITC fluorescence, CD31 immunostaining)", "parameters": "species or system nude mice", "settings": "1 h", "description": "The orthotopic U87-mCherry-luc glioma-bearing nude mice model was firstly established. Female nude mice were anesthetized by isoflurane and fixed on a ventricle stereotaxic instrument. U87-mCherry-luc cells were collected after trypsin digestion and then injected into the right striatum of the brain of nude mice. On the 4th day after the surgery, the bioluminescence of the glioma tissue was detected by the IVIS kinetic imaging system (Lumina II; Caliper, MA, USA). The mice were randomly divided into four groups according to the bioluminescence intensity (n = 3). FITC-AT7, FITC-TAT, and FITC-TAT-AT7 (30 mg/Kg) were injected into mice via the tail vein on day 8. The control group was only injected with normal saline. After 1 h, the mice were sacrificed, and the brains were collected and fixed with 4% paraformaldehyde for 24 h. Then, the fixed brains were dehydrated by 15% and 30% sucrose, successively, frozen with O.C.T. embedding reagent, and then cut into frozen brain tissue slices. Then, sections of slices were incubated with rabbit anti-murine CD31 antibody, followed by treatment with Cy5.5-labeled goat anti-rabbit IgG secondary antibody. The slices were further stained with DAPI for 5 min and observed using a confocal microscope."}, "[2]": {"settings": "FITC-labeled peptide 30 mg/kg, tail vein, n = 3"}}}
{"smiles": "CC(C)C[C@H](NC(=O)[C@H](Cc1c[nH]c2ccccc12)NC(=O)[C@@H](NC(=O)[C@H](C)NC(=O)[C@H](CS)NC(=O)[C@H](CCCNC(=N)N)NC(=O)[C@H](CCCNC(=N)N)NC(=O)[C@H](CCCNC(=N)N)NC(=O)[C@H](CCC(N)=O)NC(=O)[C@H](CCCNC(=N)N)NC(=O)[C@H](CCCNC(=N)N)NC(=O)[C@H](CCCCN)NC(=O)[C@H](CCCCN)NC(=O)[C@@H](N)CCCNC(=N)N)[C@@H](C)O)C(=O)N1CCC[C@H]1C(=O)N1CCC[C@H]1C(=O)N[C@@H](CCCNC(=N)N)C(=O)O", "note": "[TAT-AT7]", "values": [{"measurement": "phosphorylation level of VEGFR-2", "setting": "VEGFR-2", "value": "reduce the phosphorylation level of VEGFR-2"}, {"measurement": "co-localization with glioma blood vessels (CD31)", "setting": "[1]; [2]", "value": "obviously co-localized with glioma blood vessels"}, {"measurement": "green (FITC) fluorescence intensity in glioma tissue", "setting": "[1]; [2]", "value": "significantly higher than that in the AT7 and TAT groups"}, {"measurement": "accumulation and distribution in the glioma region", "setting": "[1]; FITC-labeled peptide, intravenous, discussion", "value": "higher accumulation and deeper distribution in the glioma region after intravenous injection compared to TAT and TAT+AT7"}]}
